Results: patent publication US20040203128A1, “Use of PP2A phosphatase modulators in the treatment of mental disorders” (priority 2002, published 2004)

Experiments:
GSK-3β = test: In vitro phosphorylation assay of GST-2E11 with recombinant GSK-3β kinase and PKA; format: biochemical; settings: LiCl at final concentration 0, 8.3, 25, 75 and 225 mM; signal negatively correlated with concentration
Method: Expression and purification of the GST-2E11 fusion protein were performed as described above. Beads with bound fusion protein corresponding to 1 ml of bacterial clear lysate were washed three times in NETN and one time with HMK buffer without DTT (20 mM Tris-HCl [pH 7.5], 120 mM NaCl, 12 mM MgCl2). Beads were resuspended in 240 μl of reaction mix (24 μl of 10×HMK Buffer with 20 mM DTT, 40 units of Protein Kinase A Catalytic Subunit [PKA from bovine heart, 250 units/vial, Sigma] in 40 mM DTT, 5 μl of 24 mM ATP and 207 μl of distilled water) and incubated for 30 min at room temperature. Beads were then washed three times in NETN buffer and one time in GSK-3β reaction buffer (20 mM Tris-HCl [pH 7.5], 10 mM MgCl2, 5 mM DTT) (New England Biolabs). Beads were then resuspended in 50 μl of reaction mix (5 μl of 10×GSK-3β reaction buffer, 1 μl of [^32P]γATP 10mCi/ml, 50 U of recombinant GSK-3β[New England Biolabs], and distilled water for a final volume of 50 μl) and incubated at room temperature for 30 min. After three washes in NETN buffer, phosphorylated proteins were boiled in 2× Sample Buffer (125 mM Tris-HCl [pH 6.8], 4% SDS, 20% glycerol, 1.4 M β-Mercapto ethanol), resolved by 10% SDS-PAGE, and visualized by autoradiography.
In this phosphorylation assay, non-radiolabeled polypeptides to be tested are incubated in the presence of GSK-3β, PKA and radioactive ATP. […]

PP2A phosphatase = test: In vitro dephosphorylation of phosphorylated GST-2E11 with HTB-14 whole cell extracts; format: biochemical, Human; settings: HTB-14 cell extracts plus 400 μM okadaic acid, 30 min, room temperature
Method: In vitro phosphorylated GST-2E11 fusion protein was incubated at room temperature for 30 min with 500 μg of whole cell extracts of Human glioblastoma, astrocytoma cell line (ATCC number: HTB-14) with or without 400 μM of the PP2A phosphatase inhibitor okadaic acid (Sigma). HTB-14 whole cell extracts were prepared as follow: cells were washed three times with ice-cold TBS buffer (10 mM Tris-HCl [pH 8.0], 120 mM NaCl) and lysed at 4° C. for 30 min in EBC buffer (50 mM Tris-HCl [pH 8.0], 120 mM NaCl, 0.5% Nonidet P-40). Then the lysate was centrifugated for 10 min at 13.000×g at 4° C. to pellet cell debris. Proteins present in the supernatant were quantified by the standard Bradford's method (Bio-Rad Protein Assay). The proteins were then resolved by 10% SDS-PAGE, and visualized by autoradiography.
The phosphorylated radiolabeled GST-2E11 proteins obtained from the previous assay were incubated in the presence of HTB-14 cell extracts containing the PP2A phosphatase to determine whether PP2A is capable of dephosphorylating GST-2E11 proteins. In this experiment, a protein that is dephosphorylated by PP2A is not radioactive after incubation in the presence of HTB-14 cell extracts any more. Thus dephosphorylation of the GST-2E11 protein is monitored by disappearance of the signal visualized by autoradiography. […]

| SMILES | intensity of the GST-2E11 band (phosphorylation) in the presence of LiCl (GSK-3β) | intensity of the GST-2E11 band versus phosphorylated GST-2E11 reference (inhibition of dephosphorylation) (PP2A phosphatase) |
| --- | --- | --- |
| [Cl-].[Li+] [LiCl] | decreased |  |
| C=C1[C@@H](O)[C@@H]2O[C@]3(CC[C@H](/C=C/[C@@H](C)[C@@H]4CC(C)=C[C@@]5(O[C@H](C[C@@](C)(O)C(=O)O)CC[C@H]5O)O4)O3)CC[C@H]2O[C@@H]1[C@@H](O)C[C@H](C)[C@H]1O[C@@]2(CCCCO2)CC[C@H]1C [okadaic acid] |  | only slightly weaker |
